# Test results: patent US5401748A, “2,14-disubstituted ergolines, their production and use in pharmaceutical compositions” (Schering Aktiengesellschaft, priority 1991, dated 1995)
# Tested on: central dopamine receptors
# Experiment: Stereotypy-triggering activity in rats after one-time i.p. pretreatment (method of Horowski and Wachtel)
# Type: in vivo, female Wistar rats
# Settings: ip, rat
# Method: The dopaminergic agonistic effect is determined, for example, with the help of method, described by Horowski and Wachtel, of the registration of stereotypies by observation of behavior (Eur. J. Pharmacol. 36: 373-383, 1976):
# Immediately after intraperitoneal test substance or vehicle administration,female Wistar rats (90-110 g) are placed individually in observation cages made from transparent acrylic glass (25×19×13.5 cm). At 30, 60, 120, 240, 360 and 480 minutes after pretreatment, the presence of behavior stereotypies (chewing, licking, gnawing) is registered by observation of the animals for 2 minutes (i.e., of 30th-32nd, 60th-62nd, 120th-122nd minutes, etc.). Animals which during the 2-minute observation period show continuous chewing, licking and gnawing movements (longer than 30 seconds) are considered stereotypic.
# The number of animals per treatment group with behavior stereotypies is determined during the various observation times. The different treatment groups consist of n=8 animals each. Average effective dose (ED50) is determined with 95% range of confidence for the various observation times with the help of probit analysis.
# At 30, 60, 120, 240, 360 and 480 minutes after i.p. pretreatment with test substance or vehicle, the presence of behavior stereotypies in rats (chewing, licking, gnawing) was determined by observation for 2 minutes (i.e., of 30th-32nd, 60th-62nd, 120th-122nd minutes, etc.).
structure (smiles),measurement,setting,value
"CCCN1C[C@@H](NC(=O)N(CC)CC)C[C@@H]2c3ccc(C)c4[nH]c(C)c(c34)C[C@H]21 [3-(2,14-Dimethyl-6-propyl-8α-ergolinyl)-1,1-diethylurea]",ED50,"0.5 h, 30 min, n=8, 95% range of confidence by probit analysis",0.055 mg/kg
same,ED50,"1 h, 60 min, n=8, probit analysis",< 0.025 mg/kg
same,ED50,"2 h, 120 min, n=8, probit analysis",< 0.025 mg/kg
same,ED50,"4 h, 240 min, n=8, probit analysis",< 0.025 mg/kg
same,ED50,"6 h, 360 min, n=8, 95% range of confidence by probit analysis",0.071 mg/kg
same,ED50,"8 h, 480 min, n=8, 95% range of confidence by probit analysis",0.072 mg/kg
